Source: patent US20130231305A1, “Method of Modulating Protein 14-3-3 Functionality By Facilitating or Inhibiting Phosphorylation” (Medvet Science Pty. Ltd., priority 2010, published 2013)
Changes are numbered by the printed parent chain.

Legend:
14-3-3ζ D20N mutant = molecular target: T1, 14-3-3ζ D20N mutant (Homo sapiens, UniProt P63104, D20N); test: Phosphorylation of D20N mutant 14-3-3ζ by PKA catalytic subunit with FTY720; assay type: biochemical; conditions: increasing concentrations of FTY720, FIG. 9C
T1 construct: made in house
T1 sequence (P63104 1-245 D20N): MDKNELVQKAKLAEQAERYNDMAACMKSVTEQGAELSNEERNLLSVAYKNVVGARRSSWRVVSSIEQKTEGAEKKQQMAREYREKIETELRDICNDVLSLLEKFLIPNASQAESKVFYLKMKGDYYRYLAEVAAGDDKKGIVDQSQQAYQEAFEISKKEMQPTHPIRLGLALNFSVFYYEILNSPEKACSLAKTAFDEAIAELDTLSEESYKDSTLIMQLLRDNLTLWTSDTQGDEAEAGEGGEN
From the text: FIG. 9 A depicts a side view of 14-3-3ζ in space filling representation indicating the orientation of view B. The monomer units (in green and orange) and interacting phospho-peptides, (in cyan) bound in the dual amphipathic grooves are shown. B. Bottom-up view of 14-3-3ζ with the location of S58 phosphorylation site (indicated by arrows and asterisk) and key surface acidic (in yellow) and basic (in blue) residues shown. C. In vitro phosphorylation of 14-3-3ζ wild type and mutants as indicated by catalytic PKA subunit in the presence of increasing concentrations of FTY720. […] D. Mutant 14-3-3 (as indicated) was analysed by native-PAGE and Coomassie staining. The arrow indicates the migration of dimeric 14-3-3 protein. E. A schematic representation of a 14-3-3 dimer showing the buried S58 phosphorylation site in pink, D20, the residue proposed to interact with sphingolipid in yellow and the predicted salt bridge interactions involved in dimerisation. F. & G. In silico docking of FTY720 (shown in cyan in F.) and sphingosine (in pink in G.) in 14-3-3ζ dimer interface.
The dimer interface of 14-3-3 proteins lies at the bottom of the phospho-serine binding groove and comprises a central hole of around 10 Å in diameter in which the Ser58 phosphorylation site is positioned (FIG. 9B, indicated by *). […]

14-3-3 isoforms = test: Phosphorylation of recombinant 14-3-3 isoforms by PKA catalytic subunit; assay type: biochemical; conditions: 50 μM in 0.1% ethanol
Protocol: FIG. 3 is an image depicting that sphingosine is required for the phosphorylation of multiple 14-3-3 isoforms in the third helix. (A) Primary sequence alignment of 14-3-3 isoforms in the third helix showing conservation of a Ser phosphorylation site (shown in bold). Asterisks indicate identical amino acids. (B) Recombinant 14-3-3 isoforms were incubated with PKA catalytic subunit in the presence of 50 μM sphingosine, dimethyl-sphingosine (DMS) or FTY 720 (FTY) delivered in 0.1% ethanol (EtOH). Phosphorylated 14-3-3s were detected by autoradiography. Gels were coomassie stained to show equal loading of 14-3-3 substrate.
Substrate 14-3-3 (either 0.5 μg of purified recombinant 14-3-3, a […] of fractions from gel filtration or immunoprecipitates from 14-3-3ζ-Myc transfected COS cells) were added to reaction mixture comprising 0.2 Units of the PKA catalytic subunit, in the presences or absence of sphingolipid (delivered in 0.1% v/v ethanol) in PICA reaction buffer (20 mM MOPS, pH 7.4, 20 mM β-glycerol phosphate, 4 mM EGTA, 1 mM Na3VO4, 60 mM MgCl2, 1 mM DTT, 500 μM ATP, 2.4 μCi [^32P]γ-ATP). Reactions were incubated at 37° C. for 15 minutes. After incubation, reactions were separated on 12.5% SDS-PAGE, coomassie stained and 14-3-3 phosphorylation analysed by autoradiography.

14-3-3ζ = molecular target: T2, 14-3-3ζ (Homo sapiens, UniProt P63104); test: 14-3-3 phosphorylation by PKA catalytic subunit (autoradiography); assay type: biochemical; conditions: increasing concentrations of FTY720, FIG. 9C
T2 construct: made in house
T2 sequence (P63104 1-245): T1 sequence (P63104 1-245 D20N) with N20D

Jurkat cells = test: Jurkat cell apoptosis (TMRE staining, NucView caspase activity); assay type: cell-based; conditions: 2 μM
From the text: (A) Immunoblotting of lysates from either parental Jurkat cells (Jurkat) or cells transduced with lentivirus encoding either wild type (Wt) or S58A 14-3-3ζ-Myc with either an anti-14-3-3ζ specific antibody (upper panel) or an anti-pan 14-3-3 antibody (middle panel) to compare the expression level of transduced protein. Myc immunoprecipitates were also immunoblotted with an anti-phospho 14-3-3 binding site antibody (lower panel) to detect proteins associated with 14-3-3ζ-Myc. Endogenous 14-3-3 is indicated by an open arrow and exogenous 14-3-3ζ-Myc with a closed arrow. (B) Lysates from either wild type (Wt) or S58A 14-3-3ζ-Myc expressing Jutkat cells were subjected to in vitro PKA phosphorylation in the presence (+) or absence (−) of […] and the samples immunoblotted after SDS-PAGE separation With either anti-Myc antibody (upper panel), anti-14-3-3ζ antibody (middle panel) or anti-phospho Ser58 14-3-3ζ antibody (lower panel). (C) Serum-starved Jurkat cells were treated with 2 μM FTY720 for 4 h prior to staining with TMRE and NucView™. Forward- versus side-scatter plots (FS versus SS) show the viable cell populations for FTY720 and EtOH (vehicle) treated cells which are analysed in the lower histograms for caspase activity (NucView™) versus ΔΨM (TMRE). (D and E) Jurkat cell lines expressing either wild type or S58A 14-3-3ζ-Myc by lentiviral transduction were serum-starved for 2 h and treated with either 0.1% ethanol vehicle alone (EtOH), 2 μM dimethyl-sphingosine (DMS), or 2 μM FTY720. Cells were analysed by TMRE staining at 4 h (D) or at the time points indicated (E). (D) Representative analyses of TMRE staining with forward- versus side-scatter plots inset to show the similarity in cell populations. (E) Graphical representation of TMRE analysis over time with open symbols representing vehicle (0.1% EtOH) treated cells and closed symbols representing FTY720 treated cells. […]
FIG. 11. […] Effect of TMAs on Jurkat cells after 16 hours incubation assessed by ΔΨM (TMRE) and caspase 3 activity (NucView™) analysis. […] Forward-side-scatter histograms showing cell viability are inset and caspase 3 activity as assessed by NucView™ analysis of viable cells shown. E. Examples of TMA-derivatives of FTY720 that will be analysed for effects on 14-3-3 dimer stability and apoptosis.
Having confirmed appropriate expression and behaviour of Myc-tagged wild type and S58A 14-3-3ζ in the Jurkat lines, these cells were utilised in functional studies to determine the effect of S58A 14-3-3ζ expression on cell survival in response to sphingosine analogues. […] Intriguingly, Jurkat cells expressing S58A 14-3-3ζ-Myc consistently underwent commitment to apoptosis (as detected by the loss of TMRE staining) more slowly than those expressing wild type 14-3-3ζ-Myc (FIG. 8D).

[1] = 4 h, serum-starved Jurkat cells

phosphorylatability of D20N 14-3-3ζ by PKA catalytic subunit (14-3-3ζ D20N mutant): only weakly phosphorylatable
phosphorylatability of wild-type 14-3-3ζ by PKA catalytic subunit (14-3-3ζ): increasing phosphorylatability
SMILES: CCCCCCCCc1ccc(CCC(N)(CO)CO)cc1 [FTY720]
phosphorylation of 14-3-3 isoforms by PKA catalytic subunit (14-3-3 isoforms): behaved similarly to sphingosine and DMS in modulating 14-3-3 for phosphorylation
caspase-3 activity (NucView) (Jurkat cells; [1]): activation of caspase-3
commitment to apoptosis (loss in TMRE staining) (Jurkat cells; [1]): rapid commitment to apoptosis
commitment to apoptosis in S58A versus wild type 14-3-3ζ-Myc expressing cells (TMRE) (Jurkat cells; Jurkat cells expressing S58A 14-3-3ζ-Myc): delayed mitochondrial permeability transition
